Results reported in patent US20170027896A1, “METHODS AND COMPOSITIONS FOR THE TREATMENT OF VASCULAR MALFORMATION” (IFOM - FONDAZIONE ISTITUTO FIRC DI ONCOLOGIA MOLECOLARE, priority 2014, published 2017).
“Also recorded” adds a separate entry of the source.

Columns and labels:
[1] = tested on: vascular lesions in the brain of CCM3-ECKO mice; experiment: Assessment of lesion burden in brains of CCM3-ECKO mice; assay type: in vivo, mouse
Source text: The CCM3-flox/flox mice were generated at TaconicArtemis (Koeln, Germany). Two P-lox sequences were inserted that flank exons 4 and 5 of the murine CCM3 gene, to produce a loss-of-function mutation after excision by Ore recombinase. These CCM3-flox/flox mice were bred with Cdh5(PAC)-CreERT2 mice (Wang et al, 2010) for tamoxifen-inducible endothelial-cell-specific expression of Ore-recombinase and CCM3 gene recombination. The CCM3-flox/flox-Cdh5(PAC)-CreERT2 mice were further bred with BAT-gal mice (Maretto et al, 2003) to monitor the activation of b-catenin transcription signaling, and with Rosa 26-Enhanced […] Fluorescent Protein (EYFP) (Rosa26EYFP) mice (Srinivas et al, 2001) to monitor the expression of Ore-recombinase through the expression of EYFP. Tamoxifen (Sigma) was dissolved in corn oil and 10% ethanol (at 10 mg/ml), and then diluted 1:5 in corn oil before single intragastric administration to dpn 1-2 pups (35 mg/kg body weight), as described in^14. The control (wild-type) mice included CCM3-flox/flox-Cdh5(PAC)-CreERT2-BAT-gal mice treated with the vehicle used to dissolve the tamoxifen (corn oil plus 2% ethanol), and CCM3^+/+-Cdh5(PAC)-CreERT2-BAT-gal mice treated with tamoxifen.
Brains and eyes from mice pups were fixed in 3% paraformaldehyde immediately after dissection, and this fixing was continued overnight at 4° C. The retinas were dissected from the eyes just before staining as the whole mount. Fixed brains were embedded in 4% low-melting-point agarose and sectioned along the sagittal axis ([…]) using a vibratome (1000 Plus, The Vibratome Company, St. Louis, Mo., US).
For the classification and counting of lesions, entire brains from dpn 9 littermate pups were sectioned and immunostained for Pecam as described above and in the Methods. Sections were then examined under wide-field fluorescence microscopy (10× and 20×). Lesions were classified as described in^63 as mulberry (multiple cavernae, group of more than two contiguous cavernae), single caverna (single dilated vessel with maximal diameter accommodating more than 25 red blood cells), or telangiectases, tortuous small vessels with abnormally dilated lumen). The total numbers of lesions were calculated by summing all of the types of lesions.
As the sections were […], a correction was applied to the number of mulberry lesions, which can span two sections. Therefore, the number of mulberry lesions was divided by […]. The lesions were counted and classified independently by two observers who were blinded to the treatments.
The maximal diameter of the mulberry lesions and single cavernae was used for statistical comparison.

[2] = tested on: CCM3-knockout brain endothelial cells in primary culture; experiment: rtPCR of b-catenin target genes in primary cultures of CCM3-knockout brain endothelial cells; assay type: cell-based, mouse; parameters: dose or concentration left out as unconfirmed; details: 48 h
Source text: Endothelial cells from the CCM3-flox/flox mice (8-10 weeks old) were isolated from the brain as previously described^13. Recombination of the floxed CCM3 gene was induced by treating the cells at culture day 1 with the AdenoCre viral vector, as previously described^59. The control endothelial cells were an aliquot of the same endothelial cell preparation treated with AdenoGFP, instead of AdenoCre. The cells were then maintained in culture for up to a further 7 days before analysis, as described in the main text. Drug treatments were for 48 h before the processing of the cells. Drugs were added to confluent cells for 48 h before the indicated assays. The final concentrations used were: […] (all from Sigma-Aldrich). As all of these were dissolved in DMSO, control treatment (vehicle) was 0.1% DMSO final concentration, as for drug treatment. RNA extraction was performed with RNeasy kits (74106; Promega). The RNA (1 μg) was reverse transcribed with random hexamers (High Capacity cDNA Archive kits; Applied Biosystems). […] For each sample, the expression levels were determined with the comparative threshold cycle (Ct) method, and normalized to the housekeeping genes encoding 18S and glyceraldehyde-3-phosphate dehydrogenase (GAPDH). […]

[3] = tested on: CCM3-knockout brain endothelial cells in primary culture; experiment: Immunostaining of CCM3-knockout brain endothelial cells in primary culture; assay type: cell-based, mouse; details: 48 h
Source text: Endothelial cells from the CCM3-flox/flox mice (8-10 weeks old) were isolated from the brain as previously described^13. Recombination of the floxed CCM3 gene was induced by treating the cells at culture day 1 with the AdenoCre viral vector, as previously described^59. The control endothelial cells were an aliquot of the same endothelial cell preparation treated with AdenoGFP, instead of AdenoCre. The cells were then maintained in culture for up to a further 7 days before analysis, as described in the main text. Drug treatments were for 48 h before the processing of the cells. Drugs were added to confluent cells for 48 h before the indicated assays. The final concentrations used were: […] (all from Sigma-Aldrich). As all of these were dissolved in DMSO, control treatment (vehicle) was 0.1% DMSO final concentration, as for drug treatment. Cells cultured in vitro were fixed and stained as described previously^46. The following antibodies were used: […] (hamster; MAB1398Z, Millipore); anti-b-galactosidase (chicken; ab9361, Abcam); anti-VE-cadherin (rat monoclonal; 550548, BD Biosciences); anti-VE-cadherin (goat; sc-6458, Santa Cruz); anti-active-b-catenin (mouse monoclonal clone 8E7) dephosphorylated on […] and Thr41, Millipore); anti-total-b-catenin (mouse monoclonal; […] AF3158, R&D); anti-CD44 (rat; 553131, BD Biosciences); anti-ID1 (rabbit; sc-488, Santa Cruz); anti-aSMA (mouse monoclonal; […], Sigma); anti-GFP (rabbit; A-6455, Invitrogen); anti-podocalyxin (goat; AF1556, R&D); anti-phospho-histone H3 (rabbit; ab51776, Millipore); anti-CCM3 (rabbit; Eurogentec); anti-p-Smad1 (rabbit; 9516, Cell Signaling); anti-endomucin (rabbit; sc-65495, Santa Cruz); anti-α-tubulin (mouse monoclonal; T9026, Sigma).

## CSc1ccc(/C=C2/C(C)=C(CC(=O)O)c3cc(F)ccc32)cc1 [sulindac sulfide, (Z)-5-Fluoro-2-methyl-1-[4-(methylthio)benzylidene]indene-3-acetic acid]
[1]; CCM3-ECKO pups at dpn9, treated from dpn2
  diameters of cerebral vessels / mulberry budding ends (Pecam immunostaining of brain sections): greatly reduces
[1]; CCM3-ECKO pups dpn 9, 30 mg/kg daily
  maximal diameter of single cavernae: did not significantly reduce
[1]; CCM3-ECKO pups dpn 9, 30 mg/kg daily, vehicle 386±56 mm
  mean maximal diameter of mulberry lesions (±SD): 244 ± 38 µm
[1]; CCM3-ECKO pups dpn 9, 30 mg/kg intragastrically daily, controls 166.8±22 (sulfide study), 153.5±28 (sulfone study)
  mean number (±SD) of vascular lesions per brain: 72.6±9
[2]
  expression of endogenous b-catenin target genes (Klf4, Ly6a, S100a4, Id1; rtPCR): effectively inhibited
[3]
  VE-cadherin at cell-cell contacts: more localized to cell-cell contacts
  nuclear localization of active b-catenin: strongly inhibited
  overexpression of Klf4 and S100a4 proteins: inhibition; also recorded: inhibited
